Experimental data from patent publication US9063046B1, “Hand-held device with reagents and method for detection and diagnostics” (priority 2012, dated 2015).

Columns and labels:
[1] = tested on: spores of B. atrophaeus; format: cell-based, Bacillus atrophaeus
[2] = tested on: Pixuna virus (PIXV); format: cell-based; conditions: screening, FIG. 1; guanidium thiocyanate at 3.5 M
[3] = tested on: VACV; set-up: species or system Vaccinia virus
[4] = tested on: B. atrophaeus endospores; set-up: species or system Bacillus atrophaeus
[5] = tested on: P. aeruginosa; set-up: species or system Pseudomonas aeruginosa

## N#CS.N=C(N)N [Guanidium thiocyanate, guanidium thiocyanate]
[1]
  killing / inactivating effect on spores: little inactivating effect
[2]
  inactivating effect on PIXV: little inactivating effect

## O=CCCCC=O [glutaraldehyde]
[1]
  killing / inactivating effect on spores: did not completely kill all of the spores

## OO [hydrogen peroxide]
[1]
  killing / inactivating effect on spores: did not completely kill all of the spores

## CC(=O)OO [peracetic acid]
[3]
  ELISA sensitivity for VACV, of untreated controls: ~50%

## cupric ascorbate
[4]
  ELISA sensitivity for spores, of untreated controls: 80-90%
[5]
  ELISA sensitivity for vegetative bacteria, of untreated controls: 80-90%
